Results from article PMC6237173, “Synthesis of novel 6,7-dimethoxy-4-anilinoquinolines as potent c-Met inhibitors” (Journal of Enzyme Inhibition and Medicinal Chemistry, 2018).

Key:
c-Met kinase = biological target: T1, c-Met kinase (Homo sapiens, UniProt P08581); experiment: c-Met inhibition assay (Caliper motility shift assay); type: biochemical; settings: for c-Met inhibition % Inhibition (10 μΜ): 10 μΜ compound; for c-Met inhibition % Inhibition (10 μΜ) / IC50: n = 3 (mean ± SD); for c-Met inhibitory activity in words: SAR statement, ortho-substituted compounds; for fold lower c-Met activity than compound 12c: versus 12c
T1 construct: purchased Carna
Procedure: A Caliper motility shift assay was applied to test the potency of synthesised compounds against c-Met kinase. Briefly, the compounds were dissolved in DMSO (Sigma) at 0.5 mM concentration, and then were diluted 50× to the final desired highest inhibitor concentration (10 μM) in reaction by DMSO. For all compounds, 100 μL of the diluted compound solution in tubes was transferred to a well on a 96-well plate (Corning) and was serially diluted 10× by transferring 10 μL dilution to 90 μL DMSO in the next well. 100 μL DMSO was added to two empty wells in the same 96-well plate for no compound control and no enzyme control. The plate was marked as source plate. 10 μL of compound solution from source plate was transferred to a new 96-well plate as the intermediate plate. […] After that, 5 μL solution from each well of the intermediate plate was transferred to a 384-well plate (Corning) as the assay plate in duplicates.c-Met kinase (Carna) was added in 1× kinase base buffer to prepare 2.5× enzyme solution, and FAM-labled peptide (GL Biochem) and ATP (Sigma) were added in 1× kinase base buffer to prepare 2.5× peptide solution. 10 μL of 2.5× enzyme solution was added to each well of the 384-well assay plate that already contained 5 μL of compound in 10% DMSO, and then incubated at room temperature for 10 min. […] The data were collected on Caliper and the conversion data were copied from Caliper program.
IC50 values were calculated from three independent experiments by fitting the data in XLfit with the following equation: Y = Bottom + (Top-Bottom)/(1 + (IC50/X)^HillSlope).

[1] = system: A549 (human lung cancer) cell line; experiment: Cell proliferation assay (MTT), A549; type: cell-based; settings: 48 h exposure, n = 3 (mean ± SD), read-out: Proliferative inhibition IC50, A549
Procedure: (§1) The anti-proliferative activities of the prepared compounds (12a-12s) were evaluated against A549, MCF-7 and MKN-45 cell lines by MTT assay in vitro. Briefly, tumour cells were cultured to log phase in RPMI 1640 medium supplemented with 10% foetal bovine serum (FBS). After diluting to 2 × 10^4 cells mL^−1 with the complete medium, 100 µL of the obtained cell suspension was added to each well of 96-well culture plates. Subsequently, incubation was performed at 37 °C in 5% CO2 for 24 h before the anti-proliferative assessment. Tested samples at pre-set concentrations were added to 6 wells with cabozantinib as a positive reference. After 48 h exposure period, 40 µL of PBS containing 2.5 mg mL^−1 of MTT was added to each well. Four hours later, 100 µL extraction solution (10% SDS-5% isobutyl alcohol-0.010M HCl) was added. After an overnight incubation at 37°C, the absorbance was measured at a wavelength of 570 nm with an ELISA microplate reader. All compounds were tested three times in each tumour cell lines. The IC50 values were the averages of three determinations and calculated by concentration-response curve fitting method.
(§2) All the synthesised compounds […] were evaluated for their antiproliferation activities against A549 (human lung cancer), MCF-7 (human breast cancer) and MKN-45 (human gastric cancer) cell lines by MTT assay, using cabozantinib as the positive control.

[2] = system: MCF-7 (human breast cancer) cell line; experiment: Cell proliferation assay (MTT), MCF-7; type: cell-based; settings: MCF7, 48 h exposure, n = 3 (mean ± SD), read-out: Proliferative inhibition IC50, MCF-7
Procedure: as §1, §2

[3] = system: MKN-45 (human gastric cancer) cell line; experiment: Cell proliferation assay (MTT), MKN-45; type: cell-based; settings: 48 h exposure, n = 3 (mean ± SD), read-out: Proliferative inhibition IC50, MKN-45
Procedure: as §1, §2

T1 sequence (P08581 25-1390): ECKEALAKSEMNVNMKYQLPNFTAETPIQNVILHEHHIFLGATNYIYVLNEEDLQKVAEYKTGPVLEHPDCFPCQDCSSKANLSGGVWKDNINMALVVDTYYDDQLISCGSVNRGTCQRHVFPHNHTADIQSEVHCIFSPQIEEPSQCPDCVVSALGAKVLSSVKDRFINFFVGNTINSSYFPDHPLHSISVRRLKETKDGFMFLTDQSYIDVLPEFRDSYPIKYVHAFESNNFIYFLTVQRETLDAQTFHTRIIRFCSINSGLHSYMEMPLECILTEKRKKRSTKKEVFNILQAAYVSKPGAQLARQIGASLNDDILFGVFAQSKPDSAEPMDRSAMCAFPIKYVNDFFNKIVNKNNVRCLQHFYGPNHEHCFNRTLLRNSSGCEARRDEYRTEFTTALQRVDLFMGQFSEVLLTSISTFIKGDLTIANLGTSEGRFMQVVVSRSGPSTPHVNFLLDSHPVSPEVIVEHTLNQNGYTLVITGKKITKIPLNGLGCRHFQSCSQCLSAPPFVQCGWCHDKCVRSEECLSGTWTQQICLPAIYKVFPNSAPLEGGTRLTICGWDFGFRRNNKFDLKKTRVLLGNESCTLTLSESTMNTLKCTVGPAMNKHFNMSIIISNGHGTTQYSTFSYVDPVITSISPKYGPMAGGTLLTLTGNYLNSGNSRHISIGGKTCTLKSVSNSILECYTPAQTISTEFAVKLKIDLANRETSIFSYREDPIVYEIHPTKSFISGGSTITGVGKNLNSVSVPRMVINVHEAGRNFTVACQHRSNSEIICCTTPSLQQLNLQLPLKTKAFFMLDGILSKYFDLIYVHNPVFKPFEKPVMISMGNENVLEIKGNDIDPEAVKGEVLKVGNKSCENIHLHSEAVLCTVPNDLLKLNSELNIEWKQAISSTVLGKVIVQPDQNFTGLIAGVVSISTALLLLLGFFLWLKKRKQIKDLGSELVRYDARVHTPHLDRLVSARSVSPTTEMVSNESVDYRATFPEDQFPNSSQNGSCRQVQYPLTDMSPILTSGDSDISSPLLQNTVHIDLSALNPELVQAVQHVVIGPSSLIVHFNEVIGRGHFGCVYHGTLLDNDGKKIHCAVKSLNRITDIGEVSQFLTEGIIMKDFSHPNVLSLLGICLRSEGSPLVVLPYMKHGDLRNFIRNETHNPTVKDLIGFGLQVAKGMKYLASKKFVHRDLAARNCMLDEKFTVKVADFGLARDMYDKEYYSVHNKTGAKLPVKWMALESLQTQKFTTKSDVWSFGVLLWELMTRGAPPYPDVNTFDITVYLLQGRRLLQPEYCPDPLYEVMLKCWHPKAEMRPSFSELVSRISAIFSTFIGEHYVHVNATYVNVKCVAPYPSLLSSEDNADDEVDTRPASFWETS

| Structure (SMILES) | c-Met inhibition % Inhibition (10 μΜ) (c-Met kinase) | c-Met inhibitory activity in words (c-Met kinase) | IC50 [1] | IC50 [2] | IC50 [3] | melting point | IC50 (c-Met kinase) | fold more potent c-Met activity than compound 12b (c-Met kinase; ratio of c-Met IC50 values, versus 12b) | fold lower c-Met activity than compound 12c (c-Met kinase; ratio of c-Met IC50 values) |
| --- | --- | --- | --- | --- | --- | --- | --- | --- | --- |
| COc1cc2nccc(Nc3ccc4nc(-c5ccccc5F)[nH]c4c3)c2cc1OC [Compound 12a, N-(2–(2-fluorophenyl)-1H-benzo[d]imidazol-6-yl)-6,7-dimethoxyquinolin-4-amine] | 16.9 ± 3.5% | diminished activity | > 100 µM | > 100 µM | > 100 µM | 247 to 249 °C |  |  |  |
| COc1cc2nccc(Nc3ccc4nc(-c5cccc(F)c5)[nH]c4c3)c2cc1OC [Compound 12b, N-(2–(3-fluorophenyl)-1H-benzo[d]imidazol-6-yl)-6,7-dimethoxyquinolin-4-amine] | 62.8 ± 1.2% |  | 45 ± 3.3 µM | 48.6 ± 5.2 µM | 57.5 ± 1.9 µM | 286 to 288 °C | 1200 ± 400 nM |  |  |
| COc1cc2nccc(Nc3ccc4nc(-c5ccc(F)cc5)[nH]c4c3)c2cc1OC [Compound 12c, N-(2–(4-fluorophenyl)-1H-benzo[d]imidazol-6-yl)-6,7-dimethoxyquinolin-4-amine] | 89.2 ± 0.3% |  | 15.6 ± 2.5 µM | 11.3 ± 1.6 µM | 21 ± 1.8 µM | 312 to 315 °C | 110 ± 20 nM | 11 fold |  |
| COc1cc2nccc(Nc3ccc4nc(-c5ccccc5Cl)[nH]c4c3)c2cc1OC [Compound 12d, N-(2–(2-chlorophenyl)-1H-benzo[d]imidazol-6-yl)-6,7-dimethoxyquinolin-4-amine] | 17.4 ± 3.7% |  | > 100 µM | > 100 µM | > 100 µM | 287 to 290 °C |  |  |  |
| COc1cc2nccc(Nc3ccc4nc(-c5cccc(Cl)c5)[nH]c4c3)c2cc1OC [Compound 12e, N-(2–(3-chlorophenyl)-1H-benzo[d]imidazol-6-yl)-6,7-dimethoxyquinolin-4-amine] | 54.5 ± 6.9% |  | 53.8 ± 5 µM | 63.5 ± 4.8 µM | 85.7 ± 3.7 µM | 250 to 252 °C | 4800 ± 500 nM |  |  |
| COc1cc2nccc(Nc3ccc4nc(-c5ccc(Cl)cc5)[nH]c4c3)c2cc1OC [Compound 12f, N-(2–(4-chlorophenyl)-1H-benzo[d]imidazol-6-yl)-6,7-dimethoxyquinolin-4-amine] | 63.8 ± 0.7% |  | 32.4 ± 3.6 µM | 29.2 ± 1.4 µM | 39.5 ± 2.5 µM | 330 to 332 °C | 930 ± 100 nM |  | about 9 fold |
| COc1cc2nccc(Nc3ccc4nc(-c5ccc(Br)cc5)[nH]c4c3)c2cc1OC [Compound 12g, N-(2–(4-bromophenyl)-1H-benzo[d]imidazol-6-yl)-6,7-dimethoxyquinolin-4-amine] | 54.2 ± 0.1% |  | 38.5 ± 2.4 µM | 46.3 ± 3.7 µM | 55 ± 3.4 µM | 280 to 282 °C | 5500 ± 900 nM |  | about 50 fold |
| COc1cc2nccc(Nc3ccc4nc(-c5ccccc5I)[nH]c4c3)c2cc1OC [Compound 12h, N-(2–(2-iodophenyl)-1H-benzo[d]imidazol-6-yl)-6,7-dimethoxyquinolin-4-amine] | 21.6 ± 2.5% |  | 92.4 ± 5.1 µM | > 100 µM | > 100 µM | 207 to 209 °C |  |  |  |
| COc1cc2nccc(Nc3ccc4nc(-c5cccc(I)c5)[nH]c4c3)c2cc1OC [Compound 12i, N-(2–(3-iodophenyl)-1H-benzo[d]imidazol-6-yl)-6,7-dimethoxyquinolin-4-amine] | 66.0 ± 0.8% |  | 23.8 ± 2 µM | 30.5 ± 1.6 µM | 36.1 ± 2.7 µM | 201 to 203 °C | 540 ± 130 nM |  |  |
| COc1cc2nccc(Nc3ccc4nc(-c5ccccc5C)[nH]c4c3)c2cc1OC [Compound 12j, 6,7-Dimethoxy-N-(2-(o-tolyl)-1H-benzo[d]imidazol-6-yl)quinolin-4-amine] | 23.0 ± 0.4% |  | > 100 µM | > 100 µM | > 100 µM | 174 to 175 °C |  |  |  |
| COc1cc2nccc(Nc3ccc4nc(-c5cccc(C)c5)[nH]c4c3)c2cc1OC [Compound 12k, 6,7-Dimethoxy-N-(2-(m-tolyl)-1H-benzo[d]imidazol-6-yl)quinolin-4-amine] | 52.7 ± 1.6% |  | 72.6 ± 6.5 µM | 78.3 ± 3.5 µM | 87.2 ± 6.7 µM | 339 to 342 °C | 8500 ± 2000 nM |  |  |
| COc1cc2nccc(Nc3ccc4nc(-c5ccc(C)cc5)[nH]c4c3)c2cc1OC [Compound 12l, 6,7-Dimethoxy-N-(2-(p-tolyl)-1H-benzo[d]imidazol-6-yl)quinolin-4-amine] | 69.0 ± 1.2% |  | 27.3 ± 1.6 µM | 24 ± 0.9 µM | 31.8 ± 1.4 µM | 316 to 319 °C | 320 ± 70 nM |  |  |
| CCc1ccc(-c2nc3ccc(Nc4ccnc5cc(OC)c(OC)cc45)cc3[nH]2)cc1 [Compound 12m, N-(2–(4-ethylphenyl)-1H-benzo[d]imidazol-6-yl)-6,7-dimethoxyquinolin-4-amine] | 95.0 ± 0.3% |  | 12.5 ± 1.3 µM | 18.4 ± 2.1 µM | 14.9 ± 0.7 µM | 210 to 212 °C | 56 ± 12 nM |  |  |
| COc1cc2nccc(Nc3ccc4nc(-c5ccc(C(C)(C)C)cc5)[nH]c4c3)c2cc1OC [Compound 12n, N-(2–(4-(tert-butyl)phenyl)-1H-benzo[d]imidazol-6-yl)-6,7-dimethoxyquinolin-4-amine] | 97.1 ± 3.5% |  | 7.3 ± 1 µM | 6.1 ± 0.6 µM | 13.4 ± 0.5 µM | 257 to 259 °C | 30 ± 8 nM |  |  |
| COc1cc2nccc(Nc3ccc4nc(-c5ccccc5OC)[nH]c4c3)c2cc1OC [Compound 12o, 6,7-Dimethoxy-N-(2–(2-methoxyphenyl)-1H-benzo[d]imidazol-6-yl)quinolin-4-amine] | 24.2 ± 0.1% |  | > 100 µM | > 100 µM | > 100 µM | 164 to 166 °C |  |  |  |
| COc1cc2nccc(Nc3ccc4nc(-c5c(F)cccc5F)[nH]c4c3)c2cc1OC [Compound 12p, N-(2–(2,6-difluorophenyl)-1H-benzo[d]imidazol-6-yl)-6,7-dimethoxyquinolin-4-amine] | 25.9 ± 1.5% | loss of activity | > 100 µM | > 100 µM | > 100 µM | 208 to 210 °C |  |  |  |
| COc1cc2nccc(Nc3ccc4nc(-c5c(Cl)cccc5Cl)[nH]c4c3)c2cc1OC [Compound 12q, N-(2–(2,6-dichlorophenyl)-1H-benzo[d]imidazol-6-yl)-6,7-dimethoxyquinolin-4-amine] | 37.0 ± 4.0% | loss of activity | > 100 µM | > 100 µM | > 100 µM | 254 to 257 °C |  |  |  |
| COc1cc2nccc(Nc3ccc4nc(-c5ccc(Cl)c(Cl)c5)[nH]c4c3)c2cc1OC [Compound 12r, N-(2–(3,4-dichlorophenyl)-1H-benzo[d]imidazol-6-yl)-6,7-dimethoxyquinolin-4-amine] | 55.4 ± 2.9% |  | 83.6 ± 4 µM | 79.2 ± 1.7 µM | > 100 µM | 336 to 338 °C | 5300 ± 1600 nM |  |  |
| COc1cc2nccc(Oc3ccc(NC(=O)C4(C(=O)Nc5ccc(F)cc5)CC4)cc3)c2cc1OC [cabozantinib, reference compound] |  |  | 4.5 ± 0.8 µM | 7.2 ± 0.5 µM | 11.8 ± 1.4 µM |  |  |  |  |
